Data as given in patent US9714240B2 (PharmAkea, Inc., priority 2013, dated 2017).

Molecular target: T1, human autotaxin (Homo sapiens, UniProt Q13822)
T1 construct: Conditioned media is collected from confluent Hep3B cells and concentrated 20-fold; endogenous in cells; host or cells: Hep3B human hepatocellular carcinoma cells (concentrated conditioned medium)
Test: Human Autotaxin Assay (choline release from LPC)
Format: biochemical
Conditions: ATX in concentrated conditioned media from Hep3B cells, substrate LPC 14:0 100 uM, absorbance at 555 nm
Description: ATX activity is assayed in concentrated conditioned media from Hep3B human hepatocellular carcinoma cells by measuring the amount of choline released from the substrate, lysophosphatidylcholine (LPC) as it is cleaved to LPA. Conditioned media is collected from confluent Hep3B cells and concentrated 20-fold using Centriprep-30 filter devices (Millipore). To assay for autotaxin inhibition, 10-20 μL of the concentrated conditioned media is incubated with 2.5 μL of a test compound in DMSO and 72.5-82.5 μL lyso-PLD buffer (100 mM Tris pH 9, 500 mM NaCl, 5 mM MgCl2, 5 mM CaCl2, 0.05% Triton X-100 in the presence or absence of 0.2% fatty-acid-free human serum albumin) for 15 min at 37° C. After the 15 min incubation, 5 ul of 2 mM LPC (14:0; Avanti Polar Lipids Cat#855575C) diluted in lyso-PLD buffer is added for a final concentration of 100 uM and the incubation continues for 1.5-3 hours at 37° C. 100 μl of a color mix containing 4.5 mM 4-aminoantipyrine, 2.7 mM N-ethyl-N-(2-hydroxy-3-sulfopropyl)-m-toluidine, 21 units/ml horseradish peroxidase and 3 units/ml choline oxidase in 50 mM Tris, pH 8, 4.5 mM MgCl2 is added and the incubation continued for 15 minutes at room temperature before reading the absorbance at 555 nm.

Structure (SMILES)	IC50
N#C/C(=C\c1cn(Cc2ccc(F)cc2)c2cc(Cl)ccc12)c1cccc(C(=O)O)c1 [Compound 2-26]	500 to 10000 nM
N#C/C(=C\c1cn(CCc2ccc(F)cc2)c2cc(Cl)ccc12)c1ccc(C(=O)O)cc1 [Compound 1-22, 4-[(Z)-2-[6-chloro-1-[2-(4-fluorophenyl)ethyl]indol-3-yl]-1-cyano-vinyl]benzoic Acid]	> 10000 nM
N#C/C(=C\c1cn(Cc2cc(Cl)cc(Cl)c2)c2cc(Cl)ccc12)c1ccc(C(=O)O)cc1 [Compound 1-19, 4-[(Z)-2-[6-chloro-1-[(3,5-dichlorophenyl)methyl]indol-3-yl]-1-cyano-vinyl]benzoic Acid]	500 to 10000 nM
N#C/C(=C\c1cn(Cc2ccc(F)cc2)c2cc(Cl)ccc12)c1ccc(C(=O)O)cc1 [Compound 1-4, (Z)-4-(2-(6-chloro-1-(4-fluorobenzyl)-1H-indol-3-yl)-1-cyanovinyl)benzoic Acid]	≤ 500 nM
N#C/C(=C\c1cn(CCCc2ccccc2)c2cc(Cl)ccc12)c1ccc(C(=O)O)cc1 [Compound 1-24, 4-[(Z)-2-[6-chloro-1-(3-phenylpropyl)indol-3-yl]-1-cyano-vinyl]benzoic Acid]	500 to 10000 nM
CCCn1cc(-n2cc(/C=C(\C#N)c3ccc(C(=O)O)cc3)c3ccc(Cl)cc32)cn1 [Compound 1-12, 4-[(Z)-2-[6-chloro-1-(1-propylpyrazol-4-yl)indol-3-yl]-1-cyano-vinyl]benzoic Acid]	> 10000 nM
N#C/C(=C\c1cn(Cc2ccc(F)cc2)c2cc(Cl)ccc12)c1ccc(C(=O)O)nc1 [Compound 2-2, 5-[(Z)-2-[6-chloro-1-[(4-fluorophenyl)methyl]indol-3-yl]-1-cyano-vinyl]pyridine-2-carboxylic Acid]	≤ 500 nM
COc1ccc(Cn2cc(/C=C(\C#N)c3ccc(C(=O)O)nc3)c3ccc(Cl)cc32)cn1 [Compound 2-3, 5-[(Z)-2-[6-chloro-1-[(6-methoxy-3-pyridyl)methyl]indol-3-yl]-1-cyano-vinyl]pyridine-2-carboxylic Acid]	≤ 500 nM
N#C/C(=C\c1cn(Cc2cnc(C(F)(F)F)s2)c2cc(Cl)ccc12)c1ccc(C(=O)O)cc1 [Compound 1-15, 4-[(Z)-2-[6-chloro-1-[[2-(trifluoromethyl)thiazol-5-yl]methyl]indol-3-yl]-1-cyano-vinyl]benzoic Acid]	≤ 500 nM
N#C/C(=C\c1cn(Cc2ccc(F)cc2)c2cccc(Cl)c12)c1ccc(C(=O)O)cc1 [Compound 1-2, 4-[(Z)-1-cyano-2-[4-chloro-1-[(4-fluorophenyl)methyl]indol-3-yl]vinyl]benzoic Acid]	500 to 10000 nM
N#C/C(=C\c1cn(Cc2ccc(F)cc2)c2c(F)c(Cl)ccc12)c1ccc(C(=O)O)cc1 [Compound 1-49, (Z)-4-(2-(6-chloro-7-fluoro-1-(4-fluorobenzyl)-1H-indol-3-yl)-1-cyanovinyl)benzoic Acid]	500 to 10000 nM
